Results from PubChem BioAssay AID2060511 (Molecular Pharmacology Branch, DTP, NCI, 2025).
Several values for one entry are separate records, joined by “and”; a condition that tells them apart may be missing. Equal values may be shown once.

Tested on: 422866-222-R5-J1-PDC spheroids with HUVEC/MSC, viability
Experiment: Anticancer human tumor 422866-222-R5-J1-PDC patient-derived pancreatic adenocarcinoma cell line growth inhibition [GQUAD]
Conditions: for viability, T/C: stronger effect = lower value
Excerpt: DNA G-quadruplex Stabilizer Agents in Combinations in Complex Spheroids
A high-throughput screen of multi-cell type tumor spheroids was designed to identify active combinations of DNA G-quadruplex stabilizer agents and targeted small molecules. Complex spheroids include a stromal component modeled by human endothelial cells (HUVEC) and fibroblasts modeled by human mesenchymal stem cells (MSCs). The concentration ranges selected for each drug and investigational agent were based upon clinically achievable concentrations if the clinical Cmax of the agent was known.
Compounds. The drugs and investigational agents: pidnarulex (CX-5461; NSC782164), APTO-253 (NSC789042), BRACO-19 (NSC847499), peposertib (NSC802822), ceralasertib (NSC780249), elimusertib (NSC800525), camonsertib (NSC841442), AZD-1390 (NSC803789), olaparib (NSC753686), talazoparib (NSC767125), ART-558 (NSC835418), sotorasib (NSC818433), MRTX-1133 (NSC836407), SN-38 (NSC673596), topotecan (NSC609699), etoposide (NSC141540), doxorubicin (NSC123127), gemcitabine (NSC613327), 5-fluorouracil (NSC19893), paclitaxel (NSC125973), vemurafenib (NSC761431), panobinostat (NSC761190), R-306465 (JNJ-16241199; NSC773264), adavosertib (NSC754352), TP-3654 (NSC805149), carboplatin (NSC241240), KSQ-4279 (NSC840948), and staurosporine (NSC755774) were obtained from the National Cancer Institute (NCI) Developmental Therapeutics Program Chemical Repository (34). The FDA-approved anticancer drug set is available from the NCI Developmental Therapeutics Program. […] The stock solutions were prepared in dimethyl sulfoxide (DMSO, Sigma-Aldrich, St. Louis, MO, cat. D2650) at 800-fold the tested concentration and stored at -70 degrees C prior to their use. All drugs and investigational agents were tested over a range starting from a high concentration at or near the clinical Cmax and decreasing in half-log increments. If the clinical Cmax for an agent had not been determined, the highest concentration tested was 10 microM.
2.3 Cell Culture. All cells were maintained in an incubator at 37 degrees C and 5% CO2 with 95% humidity. The PDC lines were cultured according to standard operating procedures established by the NCI PDMR. All PDCs were thawed and cultured in Matrigel-coated flasks prepared with a working solution of 1X Ham's F-12 nutrient mix, without supplementation (Invitrogen, cat. 11765054), 100 U/mL penicillin-streptomycin (Invitrogen, cat. 15140122), and 2.5% Matrigel (Corning Inc., cat. 354248) for the first three passages. The 857933-349-R-J2-PDC line was cultured in 6C/Colon 1B media, which includes advanced DMEM/F-12 (Thermo Fisher Scientific, cat. 12634028), 10 mM HEPES (Thermo Fisher Scientific, cat. 15630080), 1X GlutaMAX supplement (Thermo Fisher Scientific, cat. 35050061), 0.1 mg/mL primocin (InvivoGen, cat. ant-pm-2), 10% defined fetal bovine serum, heat inactivated (HyClone Laboratories Inc., cat. SH30070.03HI), 50% L-WRN conditioned media (ATCC, cat. CRL-3276), 1.25 mM N-Acetyl-L-cysteine (Sigma-Aldrich, cat. A9165), 10 mM nicotinamide (Sigma-Aldrich, cat. N0636), 1X B-27 supplement (Thermo Fisher Scientific, cat. 17504044), 1X N-2 supplement (Thermo Fisher Scientific, cat. 17502048), 10 microM Y-27632 dihydrochloride (Tocris Bioscience, cat. 1254), and 50 ng/mL human EGF recombinant protein (Thermo Fisher Scientific, cat. PHG0311). The 485176-168-R4-J1-PDC line was cultured in Panc media, which includes all 6C/Colon 1B media components plus 100 ng/mL human FGF-10 (Thermo Fisher Scientific, cat. 100-26), 500 nM SB-431542 (Selleckchem, cat. S1067), and gastrin (Tocris, cat. 3006).
[…]

[1] = compound alone, run of 04/16/2024
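Also: spheroids exposed to compounds for seven days before reading.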
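For viability, T/C in this document: percent viability relative to DMSO vehicle control taken as 100%.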

C#Cc1c(F)ccc2cc(O)cc(-c3ncc4c(N5CC6CCC(C5)N6)nc(OCC56CCCN5CC(F)C6)nc4c3F)c12 (stereo unspecified)
viability, T/C (compound 0.0316 µM): 98.8% and 99.8% and 86.7%
viability, T/C (compound 0.1 µM): 95.5% and 91.4% and 77.4%
viability, T/C (compound 0.316 µM): 94.1% and 82.6% and 77.7%
viability, T/C (compound 1 µM): 60.1% and 79% and 57.5%
viability, T/C (compound 3.16 µM): 41.3% and 43.9% and 36.5%
viability, T/C (compound 10 µM): 29.2% and 39.6% and 26.7%
IC50 (curve of compound): 1770 nM and 2700 nM and 1530 nM

C=CCn1c(=O)c2cnc(Nc3ccc(N4CCN(C)CC4)cc3)nc2n1-c1cccc(C(C)(C)O)n1
viability, T/C (compound 0.0316 µM): 80.3% and 112% and 88.7%
viability, T/C (compound 0.1 µM): 106% and 90.1% and 74.5%
viability, T/C (compound 0.316 µM): 125% and 67.2% and 52.5%
viability, T/C (compound 1 µM): 143% and 39.7% and 40.5%
viability, T/C (compound 3.16 µM): 172% and 31.3% and 30.6%
viability, T/C (compound 10 µM): 99.8% and 32.3% and 27.9%

CC(=O)O[C@H]1C(=O)[C@@]2(C)[C@H]([C@H](OC(=O)c3ccccc3)[C@]3(O)C[C@H](OC(=O)[C@H](O)[C@@H](NC(=O)c4ccccc4)c4ccccc4)C(C)=C1C3(C)C)[C@]1(OC(C)=O)CO[C@@H]1C[C@@H]2O
viability, T/C (compound 0.0316 µM): 96% and 75.6% and 77.1%
viability, T/C (compound 0.1 µM): 89.9% and 64.8% and 64.4%
viability, T/C (compound 0.316 µM): 82.1% and 66.5% and 76.9%
viability, T/C (compound 1 µM): 47.7% and 68.6% and 75.5%
viability, T/C (compound 3.16 µM): 39.7% and 75% and 67.1%
IC50 (curve of compound): 1460 nM and > 10000 nM

CC(C)(O)C1CCC(Nc2ccc3ncc(-c4cccc(C(F)(F)F)c4)n3n2)CC1 (stereo unspecified)
viability, T/C (compound 0.0316 µM): 94.3% and 83.6% and 92%
viability, T/C (compound 0.1 µM): 82.7% and 87.6% and 89.7%
viability, T/C (compound 0.316 µM): 73.7% and 75.8% and 103%
viability, T/C (compound 1 µM): 47.5% and 75.1% and 71%
viability, T/C (compound 3.16 µM): 35% and 31.5% and 45%
viability, T/C (compound 10 µM): 24.6% and 32.1% and 50.8%
IC50 (curve of compound): 1000 nM and 1950 nM and 2840 nM

CCCS(=O)(=O)Nc1ccc(F)c(C(=O)c2c[nH]c3ncc(-c4ccc(Cl)cc4)cc23)c1F
viability, T/C (compound 0.0316 µM): 96.7% and 101% and 93.4%
viability, T/C (compound 0.1 µM): 99.6% and 95.4% (2×)
viability, T/C (compound 0.316 µM): 60% and 140% and 121%
viability, T/C (compound 1 µM): 45.6% and 153% and 136%
viability, T/C (compound 3.16 µM): 32.6% and 184% and 167%
viability, T/C (compound 10 µM): 32.6% and 108% and 52.1%

COc1ncnc(C2CC2)c1-c1ncc2cnn(Cc3ccc(-c4nc(C(F)(F)F)cn4C(C)C)cc3)c2n1
viability, T/C (compound 0.0316 µM): 91.6% and 95% and 118%
viability, T/C (compound 0.1 µM): 94% and 105% and 97%
viability, T/C (compound 0.316 µM): 92.3% and 121% and 97.5%
viability, T/C (compound 1 µM): 79.7% and 102% and 98.1%
viability, T/C (compound 3.16 µM): 97% and 60.6% and 99.1%
viability, T/C (compound 10 µM): 117% and 43.5% and 105%
IC50 (curve of compound): > 10000 nM and 6450 nM

Cc1[nH]c2ccc(F)cc2c1-c1nc2c3cccnc3c3ncccc3c2[nH]1
viability, T/C (compound 3.16 µM): 84.5% [middle of 12 runs]
IC50 [1]: > 10000 nM
IC50 (compound alone, run of 04/22/2024): > 10000 nM

Cc1cnc(CNC(=O)c2c(=O)c3ccc(N4CCCN(C)CC4)nc3n3c2sc2ccccc23)cn1
viability, T/C (compound 0.1 µM): 96.7% [middle of 12 runs]
viability, T/C (compound 0.316 µM): 90.4% [middle of 12 runs]
viability, T/C (compound 1 µM): 85.3% [middle of 12 runs]
viability, T/C (compound 3.16 µM): 87.8% [middle of 12 runs]
viability, T/C (compound 10 µM): 81% [middle of 11 runs]
IC50 [1]: > 10000 nM

O=C(NO)c1cnc(N2CCN(S(=O)(=O)c3ccc4ccccc4c3)CC2)nc1
viability, T/C (compound 0.0316 µM): 69.6% and 96.6% and 94.7%
viability, T/C (compound 0.1 µM): 70.9% and 105% and 90%
viability, T/C (compound 0.316 µM): 69.7% and 92.5% and 88.2%
viability, T/C (compound 1 µM): 67% and 52.3% and 58.2%
viability, T/C (compound 3.16 µM): 74.3% and 29.5% and 37.5%
IC50 (curve of compound): > 10000 nM and 1340 nM and 1730 nM

Cn1ncnc1[C@H]1c2n[nH]c(=O)c3cc(F)cc(c23)N[C@@H]1c1ccc(F)cc1 + CN(C)c1ccc(Nc2c3ccc(NC(=O)CCN4CCCC4)cc3nc3cc(NC(=O)CCN4CCCC4)ccc23)cc1
IC50 (curve of first compound, second compound 0.0316 µM): > 316 nM
IC50 (curve of first compound, second compound 0.1 µM): > 316 nM
IC50 (curve of first compound, second compound 0.316 µM): > 316 nM
IC50 (curve of first compound, second compound 1 µM): > 316 nM
IC50 (curve of first compound, second compound 3.16 µM): > 316 nM
IC50 (curve of first compound, second compound 10 µM): > 316 nM
viability, T/C (second compound 0.0316 µM, first compound 0.000999 µM): 112%
viability, T/C (second compound 0.0316 µM, first compound 0.00316 µM): 93.7%
viability, T/C (second compound 0.0316 µM, first compound 0.00999 µM): 108%
viability, T/C (second compound 0.0316 µM, first compound 0.0316 µM): 97.2%
viability, T/C (second compound 0.0316 µM, first compound 0.0999 µM): 80.6%
viability, T/C (second compound 0.0316 µM, first compound 0.316 µM): 75.1%
viability, T/C (second compound 0.1 µM, first compound 0.000999 µM): 113%
viability, T/C (second compound 0.1 µM, first compound 0.00316 µM): 95.9%
viability, T/C (second compound 0.1 µM, first compound 0.00999 µM): 88%
viability, T/C (second compound 0.1 µM, first compound 0.0316 µM): 93.5%
viability, T/C (second compound 0.1 µM, first compound 0.0999 µM): 83%
viability, T/C (second compound 0.1 µM, first compound 0.316 µM): 75.7%
viability, T/C (second compound 0.316 µM, first compound 0.000999 µM): 94.1%
viability, T/C (second compound 0.316 µM, first compound 0.00316 µM): 90%
viability, T/C (second compound 0.316 µM, first compound 0.00999 µM): 81.5%
viability, T/C (second compound 0.316 µM, first compound 0.0316 µM): 85%
viability, T/C (second compound 0.316 µM, first compound 0.0999 µM): 89.1%
viability, T/C (second compound 0.316 µM, first compound 0.316 µM): 67.3%
viability, T/C (second compound 1 µM, first compound 0.000999 µM): 78.9%
viability, T/C (second compound 1 µM, first compound 0.00316 µM): 81.3%
viability, T/C (second compound 1 µM, first compound 0.00999 µM): 75.9%
viability, T/C (second compound 1 µM, first compound 0.0316 µM): 91.5%
viability, T/C (second compound 1 µM, first compound 0.0999 µM): 73.7%
viability, T/C (second compound 1 µM, first compound 0.316 µM): 72%
viability, T/C (second compound 3.16 µM, first compound 0.000999 µM): 72.3%
viability, T/C (second compound 3.16 µM, first compound 0.00316 µM): 69.7%
viability, T/C (second compound 3.16 µM, first compound 0.00999 µM): 89.5%
viability, T/C (second compound 3.16 µM, first compound 0.0316 µM): 83%
viability, T/C (second compound 3.16 µM, first compound 0.0999 µM): 80.1%
viability, T/C (second compound 3.16 µM, first compound 0.316 µM): 80.3%
viability, T/C (second compound 10 µM, first compound 0.000999 µM): 97.7%
viability, T/C (second compound 10 µM, first compound 0.00316 µM): 85.1%
viability, T/C (second compound 10 µM, first compound 0.00999 µM): 97.4%
viability, T/C (second compound 10 µM, first compound 0.0316 µM): 90.4%
viability, T/C (second compound 10 µM, first compound 0.0999 µM): 71.8%
viability, T/C (second compound 10 µM, first compound 0.316 µM): 82.1%
